Data: PMC3132063 (2011)

Biological target: Janus kinase 2 (JAK2) (Homo sapiens, UniProt O60674)
Sequence (O60674 whole entry): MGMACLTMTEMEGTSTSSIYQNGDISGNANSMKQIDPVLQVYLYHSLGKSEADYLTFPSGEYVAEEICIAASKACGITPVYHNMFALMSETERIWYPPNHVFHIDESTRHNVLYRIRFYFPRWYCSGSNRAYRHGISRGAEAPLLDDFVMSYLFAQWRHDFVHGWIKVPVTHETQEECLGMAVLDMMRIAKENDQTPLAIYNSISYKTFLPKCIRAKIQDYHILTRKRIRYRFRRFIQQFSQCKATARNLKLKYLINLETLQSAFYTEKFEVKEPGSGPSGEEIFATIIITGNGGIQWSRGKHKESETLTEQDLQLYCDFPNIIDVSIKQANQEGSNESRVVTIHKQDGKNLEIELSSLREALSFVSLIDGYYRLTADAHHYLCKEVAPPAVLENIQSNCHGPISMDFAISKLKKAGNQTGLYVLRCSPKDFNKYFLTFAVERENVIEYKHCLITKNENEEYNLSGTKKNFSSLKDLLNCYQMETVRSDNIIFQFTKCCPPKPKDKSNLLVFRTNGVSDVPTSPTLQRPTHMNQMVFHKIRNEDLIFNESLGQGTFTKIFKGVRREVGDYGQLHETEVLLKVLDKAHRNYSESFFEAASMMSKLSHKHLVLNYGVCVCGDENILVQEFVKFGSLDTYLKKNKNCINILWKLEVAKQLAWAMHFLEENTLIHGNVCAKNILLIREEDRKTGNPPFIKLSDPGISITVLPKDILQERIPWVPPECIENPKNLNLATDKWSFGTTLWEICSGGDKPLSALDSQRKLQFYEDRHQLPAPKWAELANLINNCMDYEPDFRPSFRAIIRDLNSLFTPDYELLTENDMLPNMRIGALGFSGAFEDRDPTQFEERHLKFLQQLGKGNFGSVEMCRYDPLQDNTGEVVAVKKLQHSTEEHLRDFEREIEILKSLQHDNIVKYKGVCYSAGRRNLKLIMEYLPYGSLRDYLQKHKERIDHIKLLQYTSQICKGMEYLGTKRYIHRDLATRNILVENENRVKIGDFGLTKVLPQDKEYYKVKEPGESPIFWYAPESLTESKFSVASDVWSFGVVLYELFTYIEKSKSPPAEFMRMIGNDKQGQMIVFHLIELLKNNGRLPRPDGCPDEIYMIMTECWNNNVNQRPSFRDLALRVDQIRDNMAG

Question: For CN1CCN(c2cccc(Nc3nc4c(-c5ccc(S(C)(=O)=O)cc5)cccn4n3)c2)CC1 [CEP-33779], which IC50 is on record?
Answer: Its IC50 is 1.8 ± 0.6 nM.
